Source: patent US11873298B2, “Compounds and uses thereof” (JANSSEN PHARMACEUTICA NV, priority 2017, dated 2024)

Assays:
SCD1 = biological target: T1, SCD1 (Homo sapiens, UniProt O00767); experiment: Growth inhibition of humanized yeast strain expressing SCD1 as sole desaturase; type: cell-based; details: humanized yeast strain, 40 h
T1 construct: host or cells: S. cerevisiae ole1Δ strain (W303 pdr1Δ pdr3Δ background), plasmid pRS316 with TDH3 promoter and CYC1 terminator
T1 sequence (O00767 1-359): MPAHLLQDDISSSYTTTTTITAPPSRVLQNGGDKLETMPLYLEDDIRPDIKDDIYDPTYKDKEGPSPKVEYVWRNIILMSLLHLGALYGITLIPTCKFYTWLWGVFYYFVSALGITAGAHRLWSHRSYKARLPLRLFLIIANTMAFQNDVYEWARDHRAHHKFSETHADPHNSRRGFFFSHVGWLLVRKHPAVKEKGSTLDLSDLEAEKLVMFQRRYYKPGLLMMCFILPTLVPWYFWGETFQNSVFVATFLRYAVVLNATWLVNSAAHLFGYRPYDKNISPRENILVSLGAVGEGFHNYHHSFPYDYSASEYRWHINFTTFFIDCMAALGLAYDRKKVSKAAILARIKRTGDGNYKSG
How it was run: (§1)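 Measured by optical density at 600 nm, growth of desaturase-dependent yeast (OLE1 deleted; human SCD1, human SCD5 or yeast Ole1 supplied from plasmid) was scored after 24 h (Ole1) or 40 h (SCD1, SCD5) at 30° C. in galactose media lacking uracil with DMSO-delivered compound.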

SCD5 = biological target: T2, SCD5 (Homo sapiens, UniProt Q86SK9); experiment: Growth inhibition of humanized yeast strain expressing SCD5 as sole desaturase; type: cell-based; details: humanized yeast strain, 40 h
T2 construct: host or cells: S. cerevisiae ole1Δ strain (W303 pdr1Δ pdr3Δ background), plasmid pRS316 with TDH3 promoter and CYC1 terminator
T2 sequence (Q86SK9 1-330): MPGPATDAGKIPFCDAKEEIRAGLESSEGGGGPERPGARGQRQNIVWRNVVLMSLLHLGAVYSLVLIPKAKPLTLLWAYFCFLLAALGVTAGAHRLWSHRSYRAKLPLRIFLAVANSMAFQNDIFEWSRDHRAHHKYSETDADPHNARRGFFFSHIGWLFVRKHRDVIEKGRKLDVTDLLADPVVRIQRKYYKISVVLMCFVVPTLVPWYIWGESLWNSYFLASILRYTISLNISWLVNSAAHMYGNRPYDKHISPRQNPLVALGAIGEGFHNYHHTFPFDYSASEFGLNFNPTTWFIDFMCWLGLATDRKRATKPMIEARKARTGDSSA
How it was run: as §1

CC(C)(C)OC(=O)N1C[C@@H]2[C@H](C1)[C@H]2C(=O)NCc1ccncc1 [Compound 768]
IC50 (SCD1): > 45 µM | IC50 (SCD5): > 45 µM

C[C@H](NC(=O)[C@H]1[C@@H]2CN(C(=O)OC(C)(C)C)C[C@@H]21)c1ccccc1 [Compound 769]
IC50 (SCD1): > 45 µM | IC50 (SCD5): > 45 µM

CC(C)(C)OC(=O)N1C[C@@H]2[C@H](C1)[C@H]2C(=O)NCc1ccc(C#N)cc1 [Compound 770]
IC50 (SCD1): > 45 µM | IC50 (SCD5): > 45 µM

CC(C)(C)OC(=O)N1C[C@@H]2[C@H](C1)[C@H]2C(=O)NCc1ccccc1 [Compound 771]
IC50 (SCD1): > 45 µM | IC50 (SCD5): > 45 µM

CC(C)(C)OC(=O)N1C[C@@H]2[C@H](C1)[C@H]2C(=O)NCc1cccc(C#N)c1 [Compound 772]
IC50 (SCD1): > 45 µM | IC50 (SCD5): > 45 µM

CC(C)(C)OC(=O)N1C[C@@H]2[C@H](C1)[C@H]2C(=O)NCc1ccc(Cl)cc1 [Compound 773]
IC50 (SCD1): > 45 µM | IC50 (SCD5): 21.5 µM

CC(C)(C)OC(=O)N1C[C@@H]2[C@H](C1)[C@H]2NC(=O)OCc1ccccc1 [Compound 774]
IC50 (SCD1): > 45 µM | IC50 (SCD5): > 45 µM

CC(C)(C)CC(=O)N1CCC(c2nc(-c3ccc4cnn(C5CCOC5)c4c3)no2)CC1 (stereo not drawn) [Compound 775]
IC50 (SCD1): > 45 µM | IC50 (SCD5): 0.022 µM

COC(=O)N1CCC(c2nc(-c3ccc4cnn(C5CCOC5)c4c3)no2)CC1 (stereo not drawn) [Compound 776]
IC50 (SCD1): > 45 µM | IC50 (SCD5): 0.025 µM

CC1(OC(=O)N2CCC(c3nc(-c4ccc5cnn(C6CCOC6)c5c4)no3)CC2)CC1 (stereo not drawn) [Compound 777]
IC50 (SCD1): 4.16 µM | IC50 (SCD5): 0.01 µM

CC(C)(C)OC(=O)N1CCN(c2noc(-c3cccc(C4CCOC4)c3)n2)CC1 (stereo not drawn) [Compound 778]
IC50 (SCD1): > 45 µM | IC50 (SCD5): 0.012 µM

CC(C)n1ncc2ccc(-c3noc(C4CCN(C(=O)C5(O)CC5)CC4)n3)cc21 [Compound 779]
IC50 (SCD1): > 45 µM | IC50 (SCD5): 15.3 µM

CC(C)(C)OC(=O)N1CCC(c2nsc(-c3ccc4cnn(C5COC5)c4c3)n2)CC1 [Compound 780]
IC50 (SCD1): > 45 µM | IC50 (SCD5): 0.027 µM

CC(C)n1nc(CO)c2ccc(-c3noc(C4CCN(C(=O)OC(C)(C)C)CC4)n3)cc21 [Compound 781]
IC50 (SCD1): > 45 µM | IC50 (SCD5): 4.8 µM

CC(C)(C)CC(=O)N1CCC(c2nc(-c3cccc(C4CCOC4)c3)no2)CC1 (stereo not drawn) [Compound 782]
IC50 (SCD1): > 45 µM | IC50 (SCD5): 0.149 µM

CC(C)(C)OC(=O)N1CCC(c2nc(N3CCC34COC4)no2)CC1 [Compound 783]
IC50 (SCD1): > 45 µM | IC50 (SCD5): > 45 µM

CC(C)(C)OC(=O)N1CCN(c2nc(-c3ccc4cnn(C5CCOC5)c4c3)no2)CC1 (stereo not drawn) [Compound 784]
IC50 (SCD1): 0.95 µM | IC50 (SCD5): 0.01 µM

CC(C)(C)OC(=O)N1CCN(c2noc(-c3cccc(C4CCCO4)c3)n2)CC1 (stereo not drawn) [Compound 785]
IC50 (SCD1): 9.21 µM | IC50 (SCD5): 0.041 µM

CC(C)(C)OC(=O)N1CCC(c2nc(-c3ccc4cn(C5CC(=O)C5)nc4c3)no2)CC1 [Compound 786]
IC50 (SCD1): > 45 µM | IC50 (SCD5): > 45 µM

CC(C)(C)OC(=O)N1CCC(c2nc(-c3ccc4cnn(C5CC(=O)C5)c4c3)no2)CC1 [Compound 787]
IC50 (SCD1): 31.5 µM | IC50 (SCD5): 0.108 µM

COCC(C)(C)n1ncc2ccc(-c3noc(N4CCN(C(=O)OC(C)(C)C)CC4)n3)cc21 [Compound 788]
IC50 (SCD1): > 45 µM | IC50 (SCD5): 6.22 µM

CC(C)(C)OC(=O)N1CCC(c2noc(-c3cccc([C@H]4CCOC4)c3)n2)CC1 [Compound 789]
IC50 (SCD1): > 45 µM | IC50 (SCD5): 0.01 µM

CC(C)(C)OC(=O)N1CC=C(c2nsc(-c3ccc4cnn(C5COC5)c4c3)n2)CC1 [Compound 790]
IC50 (SCD1): > 45 µM | IC50 (SCD5): 0.053 µM

CC(C)(C)OC(=O)N1CCC(c2nc(-c3ccc4cnn([C@H]5CCOC5)c4c3)no2)CC1 [Compound 791]
IC50 (SCD1): > 45 µM | IC50 (SCD5): 0.01 µM

CC(C)(C)OC(=O)N1CCC(c2nc(-c3ccc4cnn([C@@H]5CCOC5)c4c3)no2)CC1 [Compound 792]
IC50 (SCD1): 8.83 µM | IC50 (SCD5): 0.01 µM

CC(C)(C)OC(=O)N1CCC(c2nc(-c3ccn4cncc4c3)no2)CC1 [Compound 793]
IC50 (SCD1): > 45 µM | IC50 (SCD5): > 45 µM

CC(C)(C)OC(=O)N1C[C@@H]2[C@H](C1)[C@H]2C(=O)NCc1ccc2[nH]ncc2c1 [Compound 794]
IC50 (SCD1): > 45 µM | IC50 (SCD5): > 45 µM

CC(C)(C)OC(=O)N1CCC(c2noc(-c3cccc([C@@H]4CCOC4)c3)n2)CC1 [Compound 795]
IC50 (SCD1): > 45 µM | IC50 (SCD5): 0.01 µM

CC(C)(C)OC(=O)N1CCC(c2nc(-c3cccc(C(=O)C4COC4)c3)no2)CC1 [Compound 796]
IC50 (SCD1): > 45 µM | IC50 (SCD5): 1.59 µM

COC1(C(=O)N2CCC(c3nc(-c4ccc5cnn(C(C)C)c5c4)no3)CC2)CC1 [Compound 797]
IC50 (SCD1): > 45 µM | IC50 (SCD5): 0.133 µM

CC(C)n1ncc2ccc(-c3nc(N4CCNCC4)no3)cc21 [Compound 798]
IC50 (SCD1): > 45 µM | IC50 (SCD5): > 45 µM

COC1(C(=O)N2CCC(c3noc(-c4ccc5cnn(C(C)C)c5c4)n3)CC2)CC1 [Compound 799]
IC50 (SCD1): > 45 µM | IC50 (SCD5): 0.01 µM

CC1(CC(=O)N2CCC(c3nc(-c4ccc5cnn(C6COC6)c5c4)ns3)CC2)CC1 [Compound 801]
IC50 (SCD1): > 45 µM | IC50 (SCD5): 0.363 µM

COCC(C)(C)n1ncc2ccc(-c3noc(C4CCN(C(=O)CC(C)(C)C)CC4)n3)cc21 [Compound 802]
IC50 (SCD1): > 45 µM | IC50 (SCD5): 14.2 µM

COC(=O)N1CCN(c2nc(-c3ccc4cnn(C5CCOC5)c4c3)no2)CC1 (stereo not drawn) [Compound 803]
IC50 (SCD1): 12.9 µM | IC50 (SCD5): 0.679 µM

CC(C)n1ncc2ccc(-c3noc(N4CCn5ccnc5C4)n3)cc21 [Compound 804]
IC50 (SCD1): > 45 µM | IC50 (SCD5): > 45 µM

CC(C)n1ncc2ccc(-c3noc(N4CCn5c(Cl)cnc5C4)n3)cc21 [Compound 805]
IC50 (SCD1): > 45 µM | IC50 (SCD5): 9.36 µM

CC(C)(C)OC(=O)N1CCC(c2nc(N3CC4(COC4)C3)no2)CC1 [Compound 806]
IC50 (SCD1): > 45 µM | IC50 (SCD5): > 45 µM

CC(C)(C)CC(=O)N1CCC(c2nc(-c3ccc4cnn(C5(C)COC5)c4c3)no2)CC1 [Compound 807]
IC50 (SCD1): > 45 µM | IC50 (SCD5): 0.247 µM

CC(C)(C)OC(=O)N1CCC(c2nc(-c3ccccc3)no2)CC1 [Compound 808]
IC50 (SCD1): > 45 µM | IC50 (SCD5): 5.82 µM

CC(C)Nc1cc(-c2nc(N3CCN(C(=O)OC(C)(C)C)CC3)no2)ccn1 [Compound 809]
IC50 (SCD1): > 45 µM | IC50 (SCD5): 0.124 µM

CC(C)(C)OC(=O)N1CCC(N2CCN(c3ccc4cnn(C5COC5)c4c3)C2=O)CC1 [Compound 810]
IC50 (SCD1): > 45 µM | IC50 (SCD5): 2.5 µM

CC(C)(C)OC(=O)N1CCC(c2nc(-c3ccc4cnc(C5COC5)n4c3)no2)CC1 [Compound 811]
IC50 (SCD1): > 45 µM | IC50 (SCD5): 0.679 µM

CC(C)(C)OC(=O)N1CCC(c2noc(-c3cccc(C4CCCO4)c3)n2)CC1 (stereo not drawn) [Compound 812]
IC50 (SCD1): > 45 µM | IC50 (SCD5): 0.01 µM

COC(=O)N1CCC(c2noc(-c3ccc4cnn(C5CCOC5)c4c3)n2)CC1 (stereo not drawn) [Compound 813]
IC50 (SCD1): > 45 µM | IC50 (SCD5): 0.01 µM

CC(C)(C)OC(=O)N1C[C@@H]2[C@H](C1)[C@H]2NC(=O)c1ccc2cnn(C3COC3)c2c1 [Compound 814]
IC50 (SCD1): > 45 µM | IC50 (SCD5): > 45 µM

COC(=O)N1CCC(c2nc(-c3ccnc(NC(C)C)c3)no2)CC1 [Compound 815]
IC50 (SCD1): > 45 µM | IC50 (SCD5): > 45 µM

CC1(OC(=O)N2CCC(c3nc(-c4ccc5cnn(C6(C)COC6)c5c4)no3)CC2)CC1 [Compound 816]
IC50 (SCD1): > 45 µM | IC50 (SCD5): 7.19 µM

CC(C)(C)OC(=O)N1CCC(c2noc(-c3ccc4cnn(C5CCOC5)c4c3)n2)CC1 (stereo not drawn) [Compound 817]
IC50 (SCD1): 4.13 µM | IC50 (SCD5): 0.01 µM

CC(C)(C)OC(=O)N1CCN(c2noc(-c3ccnc(NC4COC4)c3)n2)CC1 [Compound 818]
IC50 (SCD1): > 45 µM | IC50 (SCD5): 0.56 µM

COC(=O)N1CCC(c2nc(-c3cccc(C4CCOC4)c3)no2)CC1 (stereo not drawn) [Compound 819]
IC50 (SCD1): > 45 µM | IC50 (SCD5): 3.72 µM

CC(C)(C)OC(=O)N1CCC(c2nc(-c3ccc4cnn([C@H]5C[C@](C)(O)C5)c4c3)no2)CC1 [Compound 820]
IC50 (SCD1): > 45 µM | IC50 (SCD5): 3.74 µM

CC(C)(C)OC(=O)N1CCC(c2nc(-c3ccc4cnn([C@H]5C[C@](C)(O)C5)c4c3)no2)CC1 [Compound 821]
IC50 (SCD1): > 45 µM | IC50 (SCD5): 5.06 µM

CC(C)(C)OC(=O)N1CCC(c2nc(-c3ccc4cnn([C@H]5C[C@@H](O)C5)c4c3)no2)CC1 [Compound 822]
IC50 (SCD1): > 45 µM | IC50 (SCD5): 0.111 µM

CC(C)(C)OC(=O)N1CCC(c2nc(-c3ccc4cnn([C@H]5C[C@@H](O)C5)c4c3)no2)CC1 [Compound 823]
IC50 (SCD1): > 45 µM | IC50 (SCD5): 0.119 µM

CC(C)(C)OC(=O)N1CCC(c2nc(-c3cccc(C4CCCOC4)c3)no2)CC1 (stereo not drawn) [Compound 824]
IC50 (SCD1): > 45 µM | IC50 (SCD5): 0.932 µM

CC(C)(C)OC(=O)N1CCC(c2nc(-c3ccc4cncn4c3)no2)CC1 [Compound 825]
IC50 (SCD1): > 45 µM | IC50 (SCD5): 9.49 µM
